US8519096B2, “Citrullinated peptides for diagnosing and prognosing rheumatoid arthritis” (Nestec S.A., priority 2009, dated 2013)
Non-standard residues stand in square brackets, D forms with d. *: point of attachment. Biotin = O=C1N[C@H]2[C@H](CS[C@H]2CCCCC(=O)*)N1; Cit = NC(=O)NCCC[C@H](N)C(=O)O

Tested on: IgG ACPAs
Assay: ACPA ELISA with anti-human IgG secondary antibody
Format: binding
Settings: Example 7, FIGS. 20-27
Experimental: The synthetic citrullnated peptides set forth in Example 6, which were designed from synovial proteins, were synthesized and evaluated for their ability to diagnose and/or prognose RA. […] The peptides were then tested for IgG ACPA dose-response in samples of synovial fluid taken from both healthy patients and patients with RA.

Substance | IgG ACPA positive response (strong/moderate)
FBNT-10: synthetic citrullinated peptide derived from fibronectin, Table 8 (Biotin-GGFR[Cit]TTPPTTF[Cit]RTTPPTTAR-NH2; SMILES C[C@H](NC(=O)[C@@H](NC(=O)[C@@H](NC(=O)[C@@H]1CCCN1C(=O)[C@@H]1CCCN1C(=O)[C@@H](NC(=O)[C@@H](NC(=O)[C@H](CCCNC(=N)N)NC(=O)[C@H](CCCNC(N)=O)NC(=O)[C@H](Cc1ccccc1)NC(=O)[C@@H](NC(=O)[C@@H](NC(=O)[C@@H]1CCCN1C(=O)[C@@H]1CCCN1C(=O)[C@@H](NC(=O)[C@@H](NC(=O)[C@H](CCCNC(N)=O)NC(=O)[C@H](CCCNC(=N)N)NC(=O)[C@H](Cc1ccccc1)NC(=O)CNC(=O)CNC(=O)CCCC[C@@H]1SC[C@@H]2NC(=O)N[C@@H]21)[C@@H](C)O)[C@@H](C)O)[C@@H](C)O)[C@@H](C)O)[C@@H](C)O)[C@@H](C)O)[C@@H](C)O)[C@@H](C)O)C(=O)N[C@@H](CCCNC(=N)N)C(N)=O) | moderate
FIB-A6: 25-mer citrullinated peptide: fibrinogen alpha chain amino acids 451-465 linked to 509-517, Cys461 to Ser (Biotin-GSGSTTTTR[Cit]SSSKTVFRH[Cit]HPDEA-NH2; SMILES CC(C)[C@H](NC(=O)[C@@H](NC(=O)[C@H](CCCCN)NC(=O)[C@H](CO)NC(=O)[C@H](CO)NC(=O)[C@H](CO)NC(=O)[C@H](CCCNC(N)=O)NC(=O)[C@H](CCCNC(=N)N)NC(=O)[C@@H](NC(=O)[C@@H](NC(=O)[C@@H](NC(=O)[C@@H](NC(=O)[C@H](CO)NC(=O)CNC(=O)[C@H](CO)NC(=O)CNC(=O)CCCC[C@@H]1SC[C@@H]2NC(=O)N[C@@H]21)[C@@H](C)O)[C@@H](C)O)[C@@H](C)O)[C@@H](C)O)[C@@H](C)O)C(=O)N[C@@H](Cc1ccccc1)C(=O)N[C@@H](CCCNC(=N)N)C(=O)N[C@@H](Cc1c[nH]cn1)C(=O)N[C@@H](CCCNC(N)=O)C(=O)N[C@@H](Cc1c[nH]cn1)C(=O)N1CCC[C@H]1C(=O)N[C@@H](CC(=O)O)C(=O)N[C@@H](CCC(=O)O)C(=O)N[C@@H](C)C(N)=O) | moderate
FIB-G1: synthetic citrullinated peptide derived from fibrin (gamma-chain), Table 8 (Biotin-GYVAT[Cit]DNSSILDE[Cit]FGSRILTHDSSI[Cit]YR-NH2; SMILES CC[C@H](C)[C@H](NC(=O)[C@H](CO)NC(=O)[C@H](CO)NC(=O)[C@H](CC(=O)O)NC(=O)[C@H](Cc1c[nH]cn1)NC(=O)[C@@H](NC(=O)[C@H](CC(C)C)NC(=O)[C@@H](NC(=O)[C@H](CCCNC(=N)N)NC(=O)[C@H](CO)NC(=O)CNC(=O)[C@H](Cc1ccccc1)NC(=O)[C@H](CCCNC(N)=O)NC(=O)[C@H](CCC(=O)O)NC(=O)[C@H](CC(=O)O)NC(=O)[C@H](CC(C)C)NC(=O)[C@@H](NC(=O)[C@H](CO)NC(=O)[C@H](CO)NC(=O)[C@H](CC(N)=O)NC(=O)[C@H](CC(=O)O)NC(=O)[C@H](CCCNC(N)=O)NC(=O)[C@@H](NC(=O)[C@H](C)NC(=O)[C@@H](NC(=O)[C@H](Cc1ccc(O)cc1)NC(=O)CNC(=O)CCCC[C@@H]1SC[C@@H]2NC(=O)N[C@@H]21)C(C)C)[C@@H](C)O)[C@@H](C)CC)[C@@H](C)CC)[C@@H](C)O)C(=O)N[C@@H](CCCNC(N)=O)C(=O)N[C@@H](Cc1ccc(O)cc1)C(=O)N[C@@H](CCCNC(=N)N)C(N)=O) | strong
H2A-1: synthetic citrullinated peptide derived from histone (H2A), Table 8 (Biotin-GLELAGNAA[Cit]DNKKTRIIP[Cit]HLQG-NH2; SMILES CC[C@H](C)[C@H](NC(=O)[C@H](CCCNC(=N)N)NC(=O)[C@@H](NC(=O)[C@H](CCCCN)NC(=O)[C@H](CCCCN)NC(=O)[C@H](CC(N)=O)NC(=O)[C@H](CC(=O)O)NC(=O)[C@H](CCCNC(N)=O)NC(=O)[C@H](C)NC(=O)[C@H](C)NC(=O)[C@H](CC(N)=O)NC(=O)CNC(=O)[C@H](C)NC(=O)[C@H](CC(C)C)NC(=O)[C@H](CCC(=O)O)NC(=O)[C@H](CC(C)C)NC(=O)CNC(=O)CCCC[C@@H]1SC[C@@H]2NC(=O)N[C@@H]21)[C@@H](C)O)C(=O)N[C@H](C(=O)N1CCC[C@H]1C(=O)N[C@@H](CCCNC(N)=O)C(=O)N[C@@H](Cc1c[nH]cn1)C(=O)N[C@@H](CC(C)C)C(=O)N[C@@H](CCC(N)=O)C(=O)NCC(N)=O)[C@@H](C)CC) | moderate
H2B-2: synthetic citrullinated peptide derived from histone (H2B), Table 8 (Biotin-SFVNDIFE[Cit]IAGEAS[Cit]LAHYNKRSTITS[Cit]EG-NH2; SMILES CC[C@H](C)[C@H](NC(=O)[C@H](CCCNC(N)=O)NC(=O)[C@H](CCC(=O)O)NC(=O)[C@H](Cc1ccccc1)NC(=O)[C@@H](NC(=O)[C@H](CC(=O)O)NC(=O)[C@H](CC(N)=O)NC(=O)[C@@H](NC(=O)[C@H](Cc1ccccc1)NC(=O)[C@H](CO)NC(=O)CCCC[C@@H]1SC[C@@H]2NC(=O)N[C@@H]21)C(C)C)[C@@H](C)CC)C(=O)N[C@@H](C)C(=O)NCC(=O)N[C@@H](CCC(=O)O)C(=O)N[C@@H](C)C(=O)N[C@@H](CO)C(=O)N[C@@H](CCCNC(N)=O)C(=O)N[C@@H](CC(C)C)C(=O)N[C@@H](C)C(=O)N[C@@H](Cc1c[nH]cn1)C(=O)N[C@@H](Cc1ccc(O)cc1)C(=O)N[C@@H](CC(N)=O)C(=O)N[C@@H](CCCCN)C(=O)N[C@@H](CCCNC(=N)N)C(=O)N[C@@H](CO)C(=O)N[C@H](C(=O)N[C@H](C(=O)N[C@H](C(=O)N[C@@H](CO)C(=O)N[C@@H](CCCNC(N)=O)C(=O)N[C@@H](CCC(=O)O)C(=O)NCC(N)=O)[C@@H](C)O)[C@@H](C)CC)[C@@H](C)O) | moderate
H2B-3: synthetic citrullinated peptide derived from histone (H2B), Table 8 (Biotin-SRLAHYNK[Cit]STITSREIQTAV[Cit]LG-NH2; SMILES CC[C@H](C)[C@H](NC(=O)[C@H](CCC(=O)O)NC(=O)[C@H](CCCNC(=N)N)NC(=O)[C@H](CO)NC(=O)[C@@H](NC(=O)[C@@H](NC(=O)[C@@H](NC(=O)[C@H](CO)NC(=O)[C@H](CCCNC(N)=O)NC(=O)[C@H](CCCCN)NC(=O)[C@H](CC(N)=O)NC(=O)[C@H](Cc1ccc(O)cc1)NC(=O)[C@H](Cc1c[nH]cn1)NC(=O)[C@H](C)NC(=O)[C@H](CC(C)C)NC(=O)[C@H](CCCNC(=N)N)NC(=O)[C@H](CO)NC(=O)CCCC[C@@H]1SC[C@@H]2NC(=O)N[C@@H]21)[C@@H](C)O)[C@@H](C)CC)[C@@H](C)O)C(=O)N[C@@H](CCC(N)=O)C(=O)N[C@H](C(=O)N[C@@H](C)C(=O)N[C@H](C(=O)N[C@@H](CCCNC(N)=O)C(=O)N[C@@H](CC(C)C)C(=O)NCC(N)=O)C(C)C)[C@@H](C)O) | strong
H3-2: synthetic citrullinated peptide derived from histone (H3), Table 8 (Biotin-DFKTDL[Cit]FQSSAVMARRIRGE[Cit]AG-NH2; SMILES CC[C@H](C)[C@H](NC(=O)[C@H](CCCNC(=N)N)NC(=O)[C@H](CCCNC(=N)N)NC(=O)[C@H](C)NC(=O)[C@H](CCSC)NC(=O)[C@@H](NC(=O)[C@H](C)NC(=O)[C@H](CO)NC(=O)[C@H](CO)NC(=O)[C@H](CCC(N)=O)NC(=O)[C@H](Cc1ccccc1)NC(=O)[C@H](CCCNC(N)=O)NC(=O)[C@H](CC(C)C)NC(=O)[C@H](CC(=O)O)NC(=O)[C@@H](NC(=O)[C@H](CCCCN)NC(=O)[C@H](Cc1ccccc1)NC(=O)[C@H](CC(=O)O)NC(=O)CCCC[C@@H]1SC[C@@H]2NC(=O)N[C@@H]21)[C@@H](C)O)C(C)C)C(=O)N[C@@H](CCCNC(=N)N)C(=O)NCC(=O)N[C@@H](CCC(=O)O)C(=O)N[C@@H](CCCNC(N)=O)C(=O)N[C@@H](C)C(=O)NCC(N)=O) | moderate
MLBS-1: synthetic citrullinated peptide derived from myeloblastin, Table 8 (Biotin-HS[Cit]PYMASLQM[Cit]GNPGSH-NH2; SMILES CSCC[C@H](NC(=O)[C@H](Cc1ccc(O)cc1)NC(=O)[C@@H]1CCCN1C(=O)[C@H](CCCNC(N)=O)NC(=O)[C@H](CO)NC(=O)[C@H](Cc1c[nH]cn1)NC(=O)CCCC[C@@H]1SC[C@@H]2NC(=O)N[C@@H]21)C(=O)N[C@@H](C)C(=O)N[C@@H](CO)C(=O)N[C@@H](CC(C)C)C(=O)N[C@@H](CCC(N)=O)C(=O)N[C@@H](CCSC)C(=O)N[C@@H](CCCNC(N)=O)C(=O)NCC(=O)N[C@@H](CC(N)=O)C(=O)N1CCC[C@H]1C(=O)NCC(=O)N[C@@H](CO)C(=O)N[C@@H](Cc1c[nH]cn1)C(N)=O) | moderate
PL-SCRB: synthetic citrullinated peptide derived from PL scramblase, Table 8 (Biotin-TL[Cit]IIDNMGQEVITLE[Cit]PLRSITLERPL[Cit]SS-NH2; SMILES CC[C@H](C)[C@H](NC(=O)[C@H](CO)NC(=O)[C@H](CCCNC(=N)N)NC(=O)[C@H](CC(C)C)NC(=O)[C@@H]1CCCN1C(=O)[C@H](CCCNC(N)=O)NC(=O)[C@H](CCC(=O)O)NC(=O)[C@H](CC(C)C)NC(=O)[C@@H](NC(=O)[C@@H](NC(=O)[C@@H](NC(=O)[C@H](CCC(=O)O)NC(=O)[C@H](CCC(N)=O)NC(=O)CNC(=O)[C@H](CCSC)NC(=O)[C@H](CC(N)=O)NC(=O)[C@H](CC(=O)O)NC(=O)[C@@H](NC(=O)[C@@H](NC(=O)[C@H](CCCNC(N)=O)NC(=O)[C@H](CC(C)C)NC(=O)[C@@H](NC(=O)CCCC[C@@H]1SC[C@@H]2NC(=O)N[C@@H]21)[C@@H](C)O)[C@@H](C)CC)[C@@H](C)CC)C(C)C)[C@@H](C)CC)[C@@H](C)O)C(=O)N[C@H](C(=O)N[C@@H](CC(C)C)C(=O)N[C@@H](CCC(=O)O)C(=O)N[C@@H](CCCNC(=N)N)C(=O)N1CCC[C@H]1C(=O)N[C@@H](CC(C)C)C(=O)N[C@@H](CCCNC(N)=O)C(=O)N[C@@H](CO)C(=O)N[C@@H](CO)C(N)=O)[C@@H](C)O) | moderate
